Columns and labels:
domestic laying hens = experiment: Egg production of domestic laying hens after oral administration in capsules; format: in vivo, chicken; details: for Number of eggs (average number of eggs per day laid by 4 chickens): oral capsules, control 3.5
Procedure: In this example, domestic laying hens have been divided into four groups: • the 4 chickens of the control group have not ingested 2-methyloxolane. • the 12 chickens of the N×1 group have ingested pure liquid 2-methyloxolane in capsules. The ingested dose of pure liquid 2-methyloxoane was 3.18 mg/kg of the chicken/day, i.e. 40 mg/kg in the daily ration, • the 12 chickens of the N×5 group have ingested pure liquid 2-methyloxolane in capsules. The ingested dose of pure liquid 2-methyloxoane was 15.88 mg/kg of the chicken/day, i.e. 200 mg/kg in the daily ration, and • the 12 chickens of the N×10 group have ingested pure liquid 2-methyloxolane in capsules. The ingested dose of pure liquid 2-methyloxoane was 31.77 mg/kg of the chicken/day, i.e. 400 mg/kg in the daily ration (the group N×10). The egg production of each group has been monitored in order to statistically validate the significance of the effect of an oral administration of 2-methyloxolane on egg production. The statistical processing is as follows: A one-factor analysis of variance (ANOVA) has been carried out using the XLSTAT 2020.2.1 software on MS EXCEL 16.0.15225. […] In case of a significant difference between the averages, a Student's t-test with a level of significance of 5% will be applied for the comparison in pairs using the same software. In total, 1,115 eggs have been counted throughout the observations. Table 1 hereinbelow presents the average of the number of eggs per day laid by 4 chickens as a function of their basking group.

rats = details: 3-month ingestion; cited from earlier work
human = details: EFSA Opinion of Mar. 15, 2022; cited from earlier work
average human of 50 kg = details: ICHQ3C R8, solvent to be limited; cited from earlier work

SMILES	Effect of oral administration on number of laid eggs per chicken (domestic laying hens; 40 to 400 mg/kg in daily ration, no apparent dose effect, ANOVA and Student's t-test, 5% level)	Number of eggs (average number of eggs per day laid by 4 chickens) (domestic laying hens; N × 1 group: 3.18 mg/kg of the chicken/day, i.e. 40 mg/kg in the daily ration)	Number of eggs (average number of eggs per day laid by 4 chickens) (domestic laying hens; N × 5 group: 15.88 mg/kg of the chicken/day, i.e. 200 mg/kg in the daily ration)	Number of eggs (average number of eggs per day laid by 4 chickens) (domestic laying hens; N × 10 group: 31.77 mg/kg of the chicken/day, i.e. 400 mg/kg in the daily ration)	More eggs laid per week than animal whose feed is not supplemented (domestic laying hens; feed supplemented by the dietary supplement comprising 2-methyloxolane)	Dose with no undesirable effect observed (rats) [mg/kg body weight per day]	Human exposure limit recommended by EFSA (human)	Acceptable Daily Dose (average human of 50 kg) [mg]
CC1CCCO1 (centres unmarked) [2-methyloxolane]	significantly increases	3.9	3.9	3.9	up to 14%	250	1 mg/kg human body weight per day	
CCCCCC [hexane]								2.9

Reference: US20260157993A1, “USE OF 2-METHYLOXOLANE FOR FEEDING OVIPAROUS ANIMALS” (ECOXTRACT, priority 2022, published 2026)
